Laboratory results reported in patent publication US5559115A, “Oncogene function-inhibitory agent, method for inhibiting oncogene function, and treatment of cancer” (Terumo Kabushiki Kaisha, priority 1993, dated 1996).
Counter-ions that a name gives are not always drawn.

Key:
[1] = Acute toxicity (LD50) on mouse upon intravenous injection; format: in vivo; conditions: in vivo, intravenous injection
Protocol: Toxicity (LD50) on mouse of III-121C upon intravenous injection was measured.

K-ras^ts-NRK cells = test: Action mechanism: morphology / M phase observation in K-ras^ts-NRK cells; format: cell-based, rat; conditions: 33° C., 0.1 μg/ml, after one day
Protocol: Before the addition of the III-121C, the cells grew atop the other and had projections or processes on their surface (FIG. 9(a)).
The procedure as described above was repeated by replacing the III-121C with 0.1 μg/ml of vinblastine, 0.1 μg/ml of vincristine and 0.1 μg/ml of colchicine, which are known as microtubule formation inhibitors.

K-ras-NRK cells = test: Action mechanism: flow-cytometric DNA content analysis of K-ras-NRK cells; format: cell-based, rat; conditions: 24 hours; III-121C 0.3 and 1 μg/ml, vinblastine 0.1 μg/ml (FIG. 11)
Protocol: FIGS. 11(a) to (d) are graphs showing the results of flow-cytometric analysis wherein the number of cells is depicted in relation to their DNA content, upon addition of no reagent (FIG. 11(a)), 0.3 μg/ml of III-121C (FIG. 11(b)), 1 μg/ml of III-121C (FIG. 11(c)), and 0.1 μg/ml of vinblastine (FIG. 11(d)) to the K-ras NRK cell culture.
To the cells of K-ras-NRK in their propagation was added either one of III-121C and vinblastine. No reagent was added to the control cells. After 24 hours from the addition, the cells were fractionated with a cell sorter to examine the DNA quantity in relation to the number of the cells.

Ras protein = conditions: cited from earlier work

SMILES | LD50 [1] [mg/kg] | number of circular or elongated cells in M phase (K-ras^ts-NRK cells) | other results
CC[C@]1(O)C[C@@H]2CN(CCc3c([nH]c4ccccc34)[C@@](C(=O)OC)(c3cc4c(cc3OC)N(C)[C@H]3[C@@](O)(C(=O)OC)[C@H](OC(C)=O)[C@]5(CC)C=CCN6CC[C@]43[C@@H]65)C2)C1 [vinblastine sulfate, reference compound] | 15.2 |  | 
CC[C@]1(O)C[C@@H]2CN(CCc3c([nH]c4ccccc34)[C@@](C(=O)OC)(c3cc4c(cc3OC)N(C)[C@H]3[C@@](O)(C(=O)OC)[C@H](OC(C)=O)[C@]5(CC)C=CCN6CC[C@]43[C@@H]65)C2)C1 [vinblastine, reference compound] |  | a significant increase in the number of circular or elongated cells that are in their M phase of the cell cycle | cell cycle / cell division inhibition (K-ras-NRK cells): inhibition of G2 /M phase in the cell cycle; distribution of DNA quantity in cells (K-ras-NRK cells): an increase in the number of cells having a relatively large quantity of DNA was observed
CC[C@H](C)C(=O)O[C@H]1CCC=C2C=C[C@H](C)[C@H](CC[C@@H]3C[C@@H](O)CC(=O)O3)[C@H]21 [compactin] |  |  | inhibition of the action of the ras oncogene product (Ras protein) (Ras protein): capable of inhibiting the action of the ras oncogene product
Nc1nc2c(ncn2[C@@H]2O[C@H](CO)[C@@H](O)[C@H]2O)c(=O)o1 [oxanosin] |  |  | inhibition of the action of the ras oncogene product (Ras protein) (Ras protein): capable of inhibiting the action of the ras oncogene product
COc1cc2c(c(OC)c1OC)-c1ccc(OC)c(=O)cc1[C@@H](NC(C)=O)CC2 [colchicine, reference compound] |  | a significant increase in the number of circular or elongated cells that are in their M phase of the cell cycle | 
CC[C@]1(O)C[C@H]2CN(CCc3c([nH]c4ccccc34)[C@@](C(=O)OC)(c3cc4c(cc3OC)N(C=O)[C@H]3[C@@](O)(C(=O)OC)[C@H](OC(C)=O)[C@]5(CC)C=CCN6CC[C@]43[C@@H]65)C2)C1 [vincristine sulfate, reference compound] | 2.5 |  | 
CC[C@]1(O)C[C@@H]2CN(CCc3c([nH]c4ccccc34)[C@@](C(=O)OC)(c3cc4c(cc3OC)N(C)[C@H]3[C@@](O)(C(N)=O)[C@H](O)[C@]5(CC)C=CCN6CC[C@]43[C@@H]65)C2)C1 [vindecine sulfate, reference compound] | 9.1 |  | 
CC[C@]1(O)C[C@H]2CN(CCc3c([nH]c4ccccc34)[C@@](C(=O)OC)(c3cc4c(cc3OC)N(C=O)[C@H]3[C@@](O)(C(=O)OC)[C@H](OC(C)=O)[C@]5(CC)C=CCN6CC[C@]43[C@@H]65)C2)C1 [vincristine, reference compound] |  | a significant increase in the number of circular or elongated cells that are in their M phase of the cell cycle | 
